Experimental data published in patent publication US3930838A, “S-benzyl-N,N-disec-butylthiocarbamate and its use as a rice field herbicide and a rice growth stimulant” (priority 1970, dated 1976).

Columns and labels:
Assay type in all cases: in vivo
rice = experiment: Comparative selectivity test on rice in submerged culture, air-conditioned atmosphere (Example 7); details: for Main root, average value per plant / Shoot, average value per plant / Sprouted plants: 24 days
Procedure: (§1) Into a set of cylindrical pots having a 200 cm^2 internal surface, sieved rice field earth in a quantity of 1 kg. per pot was introduced. After leveling and wetting with 200 cc. of water, the earth surface of the pots was uniformly sprayed with hydroacetone solutions containing, respectively, 0, 0.2, 0.3, and 0.4% active product (a.p.). 4 Ml. of the solution were sprayed onto each pot, so that the amount of active product in a set of four pots was 0, 4, 6, and 8 kg./ha., respectively. Immediately after spraying, each pot was filled with water to a level of 7 cm. over the soil surface. Thereafter, the sowing was carried out at the rate of 15 pre-germinated rice seeds per pot. Three repetitions were performed for each treatment. The pots were kept in an air-conditioned atmosphere with a daily temperature variation between 10° and 25°C and a 14 hour per day light period. After 24 days, the percentage of sprouted plants and the length of the shoot were recorded.

Scirpus sp. = experiment: Outdoor infestation degree in rice plots (Example 15); details: 36 days
Procedure: (§2) In the province of Novara, Italy, a test was performed outdoors in clay soil. For each treatment, a 600 m^2 plot provided with independent water feed was prepared. After soil working and leveling, the treatment was effected on Apr. 23, 1970, using formulations in emulsifiable oils of M3432 and of molinate, sprayed by means of mechanical devices. Only the plot treated with molinate was harrowed just after treatment in order to incorporate the product and to avoid any losses of same due to volatilization. Immediately afterwards, the plots were flooded to a water level of 10-12 cm.
(§3) A clear confirmation of the efficiency of M3432 towards Echinocloa spp. was obtained outdoors, where the test was carried out under conditions which are characteristic of Italian rice growing. The experimental conditions are described in Example 10.

Echinocloa spp. [1] = experiment: as above; details: for Infestation degree, plants per 10 square meters: 2 months
Procedure: as §2, §3

Alisma sp. = experiment: as above; details: 36 days
Procedure: as §2, §3

Echinocloa spp. [2] = experiment: Pre-emergence activity on Echinocloa in flooded cultures, pots (Example 13)
Procedure: as §1, with “After 24 days, the percentage of sprouted plants and the length of the shoot were recorded.” left out
The same method described in Example 7 was adopted, the only variations being the doses (0, 0.5, 1, 2 and 4 kg./ha.). the type of formulation and the sowing of Echinocloa spp. (25 slightly pre-germinated seeds per pot) instead of rice.

Lolium italicum = experiment: Weeding activity in screening conditions (Example 12); design: scale not given here; details: 25 days
Excerpt: (§4) Two sets of small square tanks having 11 cm. sides, filled with field earth admixed with 30% of sand, were sowed at a depth of 0.5-1 cm. with the following grass species: Echinocloa crus galli, Setaria italica, Alopecurus myosiuroides, Lolium italicum, Digitaria sanguinalis, Avena fatua, Agrostis segetum, and Dactylis glomerata. After sowing, the earth surface of the tanks was uniformly sprayed with 2.4 cc./tank of hydroacetone solutions containing, respectively, 0, 0.05, 0.10, 0.20 and 0.30% of M3432 and of molinate, respectively, in order to obtain doses thereof corresponding to 0, 1, 2, 4, and 6 kg./ha., respectively.
(§5) Only one set of small tanks was covered with a 1 cm. layer of earth just after the treatment. All of the tanks were kept in an air-conditioned chamber identical with that described in Example 7, and were watered every day. 25 days after the treatment, the final results were examined, attributing to each treatment the following scale of values: […]

Agrostis segetum = experiment: as above; design: scale not given here; details: 25 days
Excerpt: as §4, §5

Alopecurus myosiuroides = experiment: as above; design: scale not given here; details: 25 days
Excerpt: as §4, §5

Digitaria sanguinalis = experiment: as above; design: scale not given here; details: 25 days
Excerpt: as §4, §5

Avena fatua = experiment: as above; design: scale not given here; details: 25 days
Excerpt: as §4, §5

[3] = Test No. 1, hydroacetone solution, 4 kg./ha., 22 days
[4] = Treated surface covered with 1 cm earth layer, 2 kg./ha.
[5] = Treated surface covered with 1 cm earth layer, 4 kg./ha.
[6] = Treated surface covered with 1 cm earth layer, 6 kg./ha.
[7] = Test No. 1, hydroacetone solution, 2 kg./ha., 22 days
[8] = Test No. 2, hydroacetone solution, 0.5 kg./ha., 21 days
[9] = Test No. 2, hydroacetone solution, 1 kg./ha., 21 days
[10] = Test No. 2, hydroacetone solution, 2 kg./ha., 21 days
[11] = Test No. 3, 50% emulsifiable oil, 2 kg./ha., 27 days
[12] = Test No. 3, 50% emulsifiable oil, 4 kg./ha., 27 days
[13] = Test No. 3, hydroacetone solution, 2 kg./ha., 27 days
[14] = Test No. 3, hydroacetone solution, 4 kg./ha., 27 days

CCSC(=O)N1CCCCCC1 [Molinate, ethyl-1-hexamethylene-imino-carbothiolate, reference compound]
Main root, average value per plant (rice; 4 kg./ha.): 7.4 cm.
Shoot, average value per plant (rice; 4 kg./ha.): 15.3 cm.
Sprouted plants (rice; 4 kg./ha.): 42.3%
Main root, average value per plant (rice; 6 kg./ha.): 3.9 cm.
Shoot, average value per plant (rice; 6 kg./ha.): 8.2 cm.
Sprouted plants (rice; 6 kg./ha.): 20.0%
Main root, average value per plant (rice; 8 kg./ha.): 4.6 cm.
Shoot, average value per plant (rice; 8 kg./ha.): 6.6 cm.
Sprouted plants (rice; 8 kg./ha.): 11.0%
Margin of safety on rice (rice; rice growth unfavorably affected even at 6 kg./ha.): narrow margin of safety
Infestation degree (Scirpus sp.; 4 kg./ha.): moderate (moderate = 1 - 4 plants per m^2)
Infestation degree, plants per 10 square meters (Echinocloa spp. [1]; 4 kg./ha.): 1-2 no.
Infestation degree (Echinocloa spp. [1]; 4 kg./ha., 36 days): almost nil (almost nil = 0.1 plants per m^2)
Infestation degree (Alisma sp.; 4 kg./ha.): moderate (moderate = 1 - 4 plants per m^2)
Main root (Echinocloa spp. [2]; [3]): 0 cm.
Shoot (Echinocloa spp. [2]; [3]): 0 cm.
Stand (Sprouted plants) (Echinocloa spp. [2]; [3]): 0%
Weeding activity (Lolium italicum; Surface, 2 kg./ha.): 0/1
Weeding activity (Lolium italicum; Surface, 4 kg./ha.): 2
Weeding activity (Lolium italicum; Surface, 6 kg./ha.): 2/3
Weeding activity (Lolium italicum; [4]): 3/2
Weeding activity (Lolium italicum; [5]): 3/4
Weeding activity (Lolium italicum; [6]): 4
Weeding activity (Agrostis segetum; Surface, 2 kg./ha.): 2
Weeding activity (Agrostis segetum; Surface, 4 kg./ha.): 4
Weeding activity (Agrostis segetum; Surface, 6 kg./ha.): 4
Weeding activity (Agrostis segetum; [4]): 4
Weeding activity (Agrostis segetum; [5]): 4
Weeding activity (Agrostis segetum; [6]): 4
Weeding activity (Alopecurus myosiuroides; Surface, 2 kg./ha.): 1/2
Weeding activity (Alopecurus myosiuroides; Surface, 4 kg./ha.): 2
Weeding activity (Alopecurus myosiuroides; Surface, 6 kg./ha.): 3
Weeding activity (Alopecurus myosiuroides; [4]): 3
Weeding activity (Alopecurus myosiuroides; [5]): 4/3
Weeding activity (Alopecurus myosiuroides; [6]): 4/3
Weeding activity (Digitaria sanguinalis; Surface, 2 kg./ha.): 0
Weeding activity (Digitaria sanguinalis; Surface, 4 kg./ha.): 3/4
Weeding activity (Digitaria sanguinalis; Surface, 6 kg./ha.): 4
Weeding activity (Digitaria sanguinalis; [4]): 4
Weeding activity (Digitaria sanguinalis; [5]): 4
Weeding activity (Digitaria sanguinalis; [6]): 4
Weeding activity (Avena fatua; Surface, 2 kg./ha.): 1
Weeding activity (Avena fatua; Surface, 4 kg./ha.): 3/2
Weeding activity (Avena fatua; Surface, 6 kg./ha.): 4/3
Weeding activity (Avena fatua; [4]): 4
Weeding activity (Avena fatua; [5]): 4
Weeding activity (Avena fatua; [6]): 4

CCC(C)N(C(=O)SCc1ccccc1)C(C)CC (stereo not drawn) [M3432, S-benzyl-N,N-disec.butylthiocarbamate]
Main root, average value per plant (rice; 4 kg./ha.): 8.3 cm.
Shoot, average value per plant (rice; 4 kg./ha.): 17.8 cm.
Sprouted plants (rice; 4 kg./ha.): 60.0%
Main root, average value per plant (rice; 6 kg./ha.): 10.4 cm.
Shoot, average value per plant (rice; 6 kg./ha.): 21.1 cm.
Sprouted plants (rice; 6 kg./ha.): 53.3%
Main root, average value per plant (rice; 8 kg./ha.): 10.1 cm.
Shoot, average value per plant (rice; 8 kg./ha.): 23.9 cm.
Sprouted plants (rice; 8 kg./ha.): 77.7%
Infestation degree (Scirpus sp.; 4 kg./ha.): low (low = 0.5-1 plants per m^2)
Infestation degree (Scirpus sp.; 6 kg./ha.): low (low = 0.5-1 plants per m^2)
Infestation degree, plants per 10 square meters (Echinocloa spp. [1]; 4 kg./ha.): 0.25 no.
Infestation degree, plants per 10 square meters (Echinocloa spp. [1]; 6 kg./ha.): 0.33 no.
Infestation degree (Alisma sp.; 4 kg./ha.): low (low = 0.5-1 plants per m^2)
Infestation degree (Alisma sp.; 6 kg./ha.): low (low = 0.5-1 plants per m^2)
Main root (Echinocloa spp. [2]; [7]): 0 cm.
Shoot (Echinocloa spp. [2]; [7]): 0 cm.
Stand (Sprouted plants) (Echinocloa spp. [2]; [7]): 0%
Main root (Echinocloa spp. [2]; [3]): 0 cm.
Shoot (Echinocloa spp. [2]; [3]): 0 cm.
Stand (Sprouted plants) (Echinocloa spp. [2]; [3]): 0%
Main root (Echinocloa spp. [2]; [8]): 3.28 cm.
Shoot (Echinocloa spp. [2]; [8]): 8.81 cm.
Stand (Echinocloa spp. [2]; [8]): 62%
Main root (Echinocloa spp. [2]; [9]): 0 cm.
Shoot (Echinocloa spp. [2]; [9]): 0 cm.
Stand (Echinocloa spp. [2]; [9]): 0%
Main root (Echinocloa spp. [2]; [10]): 0 cm.
Shoot (Echinocloa spp. [2]; [10]): 0 cm.
Stand (Echinocloa spp. [2]; [10]): 0%
Main root (Echinocloa spp. [2]; [11]): 0 cm.
Shoot (Echinocloa spp. [2]; [11]): 0 cm.
Stand (Echinocloa spp. [2]; [11]): 0%
Main root (Echinocloa spp. [2]; [12]): 0 cm.
Shoot (Echinocloa spp. [2]; [12]): 0 cm.
Stand (Echinocloa spp. [2]; [12]): 0%
Main root (Echinocloa spp. [2]; [13]): 0 cm.
Shoot (Echinocloa spp. [2]; [13]): 0 cm.
Stand (Echinocloa spp. [2]; [13]): 0%
Main root (Echinocloa spp. [2]; [14]): 0 cm.
Shoot (Echinocloa spp. [2]; [14]): 0 cm.
Stand (Echinocloa spp. [2]; [14]): 0%
Weeding activity (Lolium italicum; Surface, 1 kg./ha.): 4
Weeding activity (Lolium italicum; Surface, 2 kg./ha.): 4
Weeding activity (Lolium italicum; Surface, 4 kg./ha.): 4
Weeding activity (Lolium italicum; Surface, 6 kg./ha.): 4
Weeding activity (Lolium italicum; [4]): 4
Weeding activity (Lolium italicum; [5]): 4
Weeding activity (Lolium italicum; [6]): 4
Weeding activity (Agrostis segetum; Surface, 1 kg./ha.): 4
Weeding activity (Agrostis segetum; Surface, 2 kg./ha.): 4
Weeding activity (Agrostis segetum; Surface, 6 kg./ha.): 4
Weeding activity (Agrostis segetum; [4]): 4
Weeding activity (Agrostis segetum; [5]): 4
Weeding activity (Agrostis segetum; [6]): 4
Weeding activity (Alopecurus myosiuroides; Surface, 1 kg./ha.): 1/2
Weeding activity (Alopecurus myosiuroides; Surface, 2 kg./ha.): 2
Weeding activity (Alopecurus myosiuroides; Surface, 4 kg./ha.): 3
Weeding activity (Alopecurus myosiuroides; Surface, 6 kg./ha.): 4
Weeding activity (Alopecurus myosiuroides; [4]): 4
Weeding activity (Alopecurus myosiuroides; [5]): 4
Weeding activity (Alopecurus myosiuroides; [6]): 4
Weeding activity (Digitaria sanguinalis; Surface, 1 kg./ha.): 3
Weeding activity (Digitaria sanguinalis; Surface, 2 kg./ha.): 4
Weeding activity (Digitaria sanguinalis; Surface, 4 kg./ha.): 4
Weeding activity (Digitaria sanguinalis; Surface, 6 kg./ha.): 4
Weeding activity (Digitaria sanguinalis; [4]): 4
Weeding activity (Digitaria sanguinalis; [5]): 4
Weeding activity (Digitaria sanguinalis; [6]): 4
Weeding activity (Avena fatua; Surface, 1 kg./ha.): 2/3
Weeding activity (Avena fatua; Surface, 2 kg./ha.): 3
Weeding activity (Avena fatua; Surface, 4 kg./ha.): 3
Weeding activity (Avena fatua; Surface, 6 kg./ha.): 3
Weeding activity (Avena fatua; [4]): 4
Weeding activity (Avena fatua; [5]): 4
Weeding activity (Avena fatua; [6]): 4
